Converted amounts (≈) assume the structure as drawn.
What was measured:
Escherichia coli = experiment: microbe, parasite or virus in culture; conditions: KCTC-1924, 24 h
Description: Antibacterial activity against Escherichia coli KCTC-1924 after 24 hrs by twofold dilution method

Staphylococcus aureus = experiment: Antibacterial activity against Staphylococcus aureus KCTC-1916 after 24 hrs by twofold dilution method; format: functional; conditions: KCTC-1916, 24 h
Tyrosinase [1] = target: T1, Tyrosinase (Agaricus bisporus, UniProt O42713)
T1 sequence (O42713 whole entry): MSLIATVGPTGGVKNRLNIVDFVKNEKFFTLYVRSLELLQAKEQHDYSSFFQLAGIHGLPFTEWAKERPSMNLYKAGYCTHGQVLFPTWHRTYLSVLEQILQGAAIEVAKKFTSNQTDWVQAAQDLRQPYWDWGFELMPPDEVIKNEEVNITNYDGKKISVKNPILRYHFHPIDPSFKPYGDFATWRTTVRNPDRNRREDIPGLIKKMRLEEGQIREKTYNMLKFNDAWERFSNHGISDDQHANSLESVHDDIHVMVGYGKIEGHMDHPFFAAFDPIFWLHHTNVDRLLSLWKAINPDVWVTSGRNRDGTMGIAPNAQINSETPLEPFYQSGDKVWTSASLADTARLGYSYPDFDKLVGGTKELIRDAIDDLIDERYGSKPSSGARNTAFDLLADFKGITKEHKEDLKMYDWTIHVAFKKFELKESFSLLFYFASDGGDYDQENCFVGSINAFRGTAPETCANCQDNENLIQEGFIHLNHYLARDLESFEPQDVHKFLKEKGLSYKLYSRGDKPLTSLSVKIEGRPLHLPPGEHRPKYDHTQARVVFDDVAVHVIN
Description: Inhibition of mushroom tyrosinase using L-DOPA as substrate after 2 mins by spectrophotometry

Tyrosinase [2] = target: T1, Tyrosinase; experiment: Competitive inhibition of mushroom tyrosinase using L-DOPA as substrate after 2 mins by Lineweaver-Burk plot

Structure (SMILES)	IC50 [µg/mL]	MIC (Escherichia coli) [µg/mL]	MIC (Staphylococcus aureus) [µg/mL]	IC50 (Tyrosinase [1]) [µM]	Ki (Tyrosinase [2]) [µM]
CC(=O)c1c2c(c3ccccc3c1O)O[C@H]1OCCC[C@@H]21 (relative stereo)	> 100	32 (≈ 113 µM)	0.5 (≈ 1.76 µM)	176	–
CCO[C@@H]1Oc2c(c(C(C)=O)c(O)c3ccccc23)[C@@H]1C (relative stereo)	62.51 (≈ 218 µM)	32 (≈ 112 µM)	0.5 (≈ 1.75 µM)	> 349	–
CC(=O)c1c2c(c3ccccc3c1O)O[C@H]1OCC[C@@H]21 (relative stereo)	> 100	2 (≈ 7.4 µM)	8 (≈ 29.6 µM)	> 370	–
CCO[C@H]1Oc2c(c(C(C)=O)c(O)c3ccccc23)[C@@H]1C (relative stereo)	> 100	–	–	107	–
CCCCOC1Cc2c(C(C)=O)c(O)c3ccccc3c2O1 (stereo unspecified)	5.01 (≈ 16.7 µM)	0.5 (≈ 1.66 µM)	8 (≈ 26.6 µM)	232	–
COC1(C)Cc2c(C(C)=O)c(O)c3ccccc3c2O1 (stereo unspecified)	31.47 (≈ 116 µM)	16 (≈ 58.8 µM)	0.5 (≈ 1.84 µM)	> 367	–
CCCOC1Cc2c(C(C)=O)c(O)c3ccccc3c2O1 (stereo unspecified)	3.33 (≈ 11.6 µM)	0.5 (≈ 1.75 µM)	0.5 (≈ 1.75 µM)	31.1	11.2
CC(=O)c1c2c(c3ccccc3c1O)OC(OCC(C)C)C2 (stereo unspecified)	6.3 (≈ 21 µM)	–	32 (≈ 107 µM)	198	–
CC(=O)c1c2c(c3ccccc3c1O)OC(C)(c1ccccc1)C2 (stereo unspecified)	77.62 (≈ 244 µM)	2 (≈ 6.28 µM)	32 (≈ 101 µM)	> 314	–
CCOC1Cc2c(C(C)=O)c(O)c3ccccc3c2O1 (stereo unspecified)	25.11 (≈ 92.2 µM)	16 (≈ 58.8 µM)	0.5 (≈ 1.84 µM)	305	–
COc1ccc(C2Cc3c(C(C)=O)c(O)c4ccccc4c3O2)cc1 (stereo unspecified)	> 100	–	32 (≈ 95.7 µM)	> 299	–

Source: ChEMBL document CHEMBL3351650, “Anti-tyrosinase, antioxidant, and antibacterial activities of novel 5-hydroxy-4-acetyl-2,3-dihydronaphtho[1,2-b]furans” (Eur J Med Chem, 2014)
